Assay results from patent US9475789B2, “Use of polyenylpyrrole derivatives for treating inflammation” (WELLHEAD BIOLOGICAL TECHNOLOGY CORP., priority 2014, dated 2016).

How the values were obtained:
[1] = tested on: TNF-α; test: TNF-α ELISA, LPS-activated peritoneal macrophages; format: cell-based, C57BL/6 mice; conditions: LPS 1 μg/ml 24 h
Experimental: (§1) (A) J774A.1 macrophages (4×10^5/ml), (B) peritoneal macrophages (4×10^5/ml), and (C) JAWSII dendritic cells (4×10^5/ml) were incubated with compound 1h or DMSO for 30 min followed by stimulating with LPS (1 μg/ml) for 24 h, then IL-6 and TNF-α concentration in culture medium were assayed by ELISA. The data are expressed as the mean±SD for three separate experiments. *, **, and *** indicate a significant difference at the level of p<0.05, p<0.01, p<0.001 respectively compared to LPS group.
(§2) The effects of tested samples on IL-1β, TNF-α and IL-6 production were measured by ELISA according to the manufacturer's instruction. In brief, 50 μl of biotinylated antibody reagent and 50 μl of supernatant were added to an anti-mouse IL-1β, TNF-α and IL-6 precoated stripwell plate, and incubated at room temperature for 2 h. After washing the plate three times with washing buffer, 100 μl of diluted streptavidin-HRP concentrate was added to each well and incubated at room temperature for 30 min. The washing process was repeated; then 100 μl of a premixed tetramethylbenzidine substrate solution was added to each well and developed at room temperature in the dark for 30 min. Following the addition of 100 μl of stop solution to each well to stop the reaction, the absorbance of the plate was measured by a microplate reader at 450 nm wavelength.

[2] = tested on: TNF-α; test: TNF-α ELISA, RAW 264.7 macrophages; format: cell-based, murine
Experimental: In (A) and (C), cells (5×10^5/ml) were incubated with polyenylpyrrole derivatives or DMSO (vehicle) for 30 min followed by stimulating with LPS (1 μg/ml) for 24 h, then NO (A), IL-6 and TNF-α (C) concentration in culture medium were assayed by Griess reaction and ELISA, respectively. In (B), cells (5×10^5/ml) were pretreated with polyenylpyrrole derivatives or DMSO for 30 min followed by stimulating with LPS (1 μg/ml) for 24 h, then the protein expression of iNOS and COX-2 were assayed by Western blot.
as §2

[3] = tested on: PKC-α; test: Western blot of PKC-α phosphorylation, ATP-activated LPS-primed J774A.1 macrophages; format: cell-based, murine; conditions: compound 1h 20 μM
Experimental: In (A), J774A.1 macrophages (1×10^6/ml) were incubated with LPS (1 μg/ml) for 5.5 h and then incubated with compound 1 h ([…]), DPI (100 μM), or DMSO (vehicle) for 30 min followed by ATP (5 mM) stimulating for the indicated time, then ROS levels were measured by detection of the fluorescence intensity of the fluorophore carboxyl-DCF and expressed relative to those at time zero. In (B), J774A.1 macrophages (1×10^6/ml) were incubated with compound 1h (20 μM), DPI (100 μM), or DMSO (vehicle) for 30 min followed by LPS (1 μg/ml) stimulating for 5.5 h, then the cells were stimulated with ATP (5 mM) for the indicated time. The ROS levels were measured by detection of the fluorescence intensity of the fluorophore carboxyl-DCF and expressed relative to those at time zero. In (C), LPS-primed J774A.1 macrophages (1×10^6/ml) were incubated with compound 1h (20 μM) or DMSO (vehicle) for 30 min followed by ATP (5 mM) stimulating for 0-60 min, then the phosphorylation level of PKC-α was analyzed by Western blot.
Whole cell lysates were separated by SDS-PAGE and electrotransferred to a PVDF membrane. The membranes were incubated in blocking solution—5% nonfat milk in phosphate buffered saline with 0.1% Tween 20—at room temperature for 1 h. Each membrane was incubated with a specific primary antibody at room temperature for 2 h. […]

[4] = tested on: ERK1/2, JNK1/2, p38; test: Western blot of MAPK phosphorylation, LPS-activated RAW 264.7 macrophages; format: cell-based, murine; conditions: compound 1h 20 μM
Experimental: In (A), RAW 264.7 macrophages (5×10^5/ml) were incubated with compound 1h (20 μM), N-acetyl cysteine (NAC; 10 mM) or DMSO (vehicle) for 30 min followed by LPS (1 μg/ml) stimulating for the indicated time, then ROS levels were measured by detection of the fluorescence intensity of the fluorophore carboxyl-DCF and expressed relative to those at time zero. In (B), RAW 264.7 macrophages (5×10^5/ml) were incubated with compound 1h (20 μM) or DMSO for 30 min followed by LPS (1 μg/ml) stimulating for 0-60 min, then the phosphorylation levels of ERK1/2, JNK1/2, p38 were analyzed by Western blot. In (C), J774A.1 macrophages (5×10^5/ml) were incubated with compound 1h or DMSO for 30 min followed by LPS (1 μg/ml) stimulating for 20 min, then the phosphorylation levels of ERK1/2, JNK1/2, p38 were analyzed by Western blot.
Whole cell lysates were separated by SDS-PAGE and electrotransferred to a PVDF membrane. The membranes were incubated in blocking solution—5% nonfat milk in phosphate buffered saline with 0.1% Tween 20—at room temperature for 1 h. Each membrane was incubated with a specific primary antibody at room temperature for 2 h. After washing three times in PBS with 0.1% Tween 20, the membrane was incubated with an HRP-conjugated secondary antibody directed against the primary antibody. The membrane was developed by an enhanced chemiluminescence Western blot detection system.

[5] = tested on: NF-κB p65; test: NF-κB p65 nuclear translocation ELISA, J774A.1 macrophages; format: cell-based, murine; conditions: compound 1h 10-40 μM, LPS 20 min
Experimental: (A) RAW 264.7 macrophages (5×10^5/ml) or (B) J774A.1 macrophages (5×10^5/ml) were incubated with compound 1h or DMSO for 30 min followed by LPS (1 μg/ml) stimulating for 20 min, then the phosphorylation levels of IKK-α and IκB-α and total IκB-α protein level were analyzed by Western blot. (C) RAW 264.7 macrophages (5×10^5/ml) or (D) J774A.1 macrophages (5×10^5/ml) were incubated with compound 1h (10-40 μM) or DMSO for 30 min followed by LPS (1 μg/ml) stimulating for 20 min, then the nuclear translocation of NF-κB were analyzed by ELISA. (E) RAW-Blue™ cells (5×10^5/ml) were incubated with compound 1h (2.5-40 μM) or DMSO for 30 min followed by LPS (1 μg/ml) stimulating for 24 h, then the SEAP activity was measured by QUANTI-Blue™. […] In (C), (D), and (E), the data are expressed as the mean±SD for three separate experiments. *, **, and *** indicate a significant difference at the level of p<0.05, p<0.01, and p<0.001 respectively compared to LPS group.
Nuclear protein from RAW 264.7 and J774A.1 cells were extracted using a Nuclear Extract Kit (Active Motif) according to the manufacturer's instructions and nuclear NF-κB p65 activation quantified using an ELISA-based TransAM NF-κB kit (Active Motif, Tokyo, Japan) according to the manufacturer's protocol by reading the absorbance with a microplate absorbance reader (Bio-Rad Laboratories, Inc) at 450 nm with a reference wavelength of 655 nm.

[6] = tested on: TNF-α; test: TNF-α ELISA, LPS-activated JAWSII dendritic cells; format: cell-based, murine; conditions: LPS 1 μg/ml 24 h
Experimental: as §1, §2

SMILES: O=c1cc(O)cc(/C=C/C=C/C=C/C=C/c2[nH]ccc2Cl)o1 [Compound 1h]
- secretion of TNF-α [1]: reduced
- TNF-α secretion ([2]; LPS-activated RAW 264.7, LPS 1 μg/ml 24 h): slight reduced by compounds 1h, 1i and 1n, but not significantly
- background level of TNF-α ([2]; compound alone, no LPS, data not shown): did not alter
- ATP-induced PKC-α phosphorylation [3]: inhibited
- phosphorylation level of ERK1/2 [4]: inhibited
- phosphorylation level of JNK1/2 [4]: inhibited
- phosphorylation level of p38 [4]: inhibited
- NF-κB nuclear translocation [5]: inhibited NF-κB nuclear translocation
- secretion of TNF-α [6]: also reduced
